Assay results taken from patent US20260199289A1, “USE OF GLYCOGEN METABOLISM INHIBITORS FOR THE TREATMENT OF CANCER” (THE UNIVERSITY OF VERMONT AND STATE AGRICULTURAL COLLEGE, priority 2022, published 2026).
“Also recorded” adds a separate entry of the source. Read-outs that look alike come from different tables or passages of the source.

Assays:
8505C tumors [1] = test: Staining of excised xenograft tumors (Ki-67, cleaved PARP, PAS glycogen); format: in vivo, mouse
8505C cells [2] = test: Metabolic flux analysis (Seahorse ECAR and OCR); format: cell-based, human; settings: for extracellular acidification rate (ECAR): 8505C cells; for oxygen consumption rate (OCR): 50 μM CP-91,149, 24 hours
Procedure: Metabolic Flux Analysis—Thyroid cells (5.0×10^4) were plated in a 96 well Seahorse culture plate with compounds of interest diluted in 200 μl CTM for 24 hours. Cells were washed with PBS and equilibrated for 1 hour at 37° C. in a non-CO2 incubator with compounds of interest diluted in Seahorse RPMI (supplemented with 11.1 mM glucose, 2 mM glutamine, and 5% serum) before analysis of OCR and ECAR in a Metabolic Flux Analyzer (Seahorse Bioscience, North Billerica, MA 96XP).

Nthy-ori-3-1 cells [3] = test: Glycogen content (colorimetric assay, TEM) in normal thyroid cells; format: cell-based, human; settings: Nthy-ori-3-1 normal thyroid cells, CP-91,149 50 μM, 24-hour incubation
Procedure: Transmission Electron Microscopy of Glycogen Deposits—Cells were seeded in 10 cm dishes and allowed to adhere overnight. […] Cells were then rinsed with PBS and lifted with trypsin for preparation for TEM as described previously. Thwe et al., “Cell-intrinsic Glycogen Metabolism Supports Early Glycolytic Reprogramming Required for Dendritic Cell Immune Responses,” Cell Metabolism 26:558-567.e555 (2017), which is hereby incorporated by reference in its entirety.
Quantification of Levels of Glycogen, Glucose-1-Phosphate, Glucose-6-Phosphate, Lactate, ATP, Glucose, NADPH, and Glutathione—Briefly, cells were seeded in 10 cm dishes (for measuring glycogen and NADPH), 6 well plates (GIP, G6P, lactate, glucose, and glutathione), or 96 well plates (ATP) and allowed to adhere overnight. CTM was aspirated and cells were rinsed with PBS before application of compounds dissolved in CTM for 24 hours, at which point cells were ~90% confluent. CTM was then aspirated, cells were rinsed with PBS, and lysed according to the respective manufacturer protocol (see Table 4) for metabolite analysis.

HepG2 cells = settings: hepatocellular carcinoma; cited from earlier work
Nthy-ori-3-1 cells [4] = test: Immunoblot of apoptosis markers and Ki-67 in normal thyroid cells; format: cell-based, human
Procedure: Briefly, proteins were isolated from whole cells in lysis buffer (20 mM Tris-HCl (pH 8), 137 mM NaCl, 10% glycerol, 1% Triton X-100, and 2 mM EDTA), quantified via Pierce™ BCA Protein Assay Kit (Thermo Fisher Scientific), and 25 μg protein/sample were resolved by polyacrylamide gel electrophoresis and immobilized onto nitrocellulose membranes. Membranes were blocked with 5% w/v BSA in TBS and 0.1% v/v Tween20 (Gold Bio, St Louis, MO, USA) for one hour at room temperature and incubated with primary antibodies overnight. Membranes were washed with TBS-0.1% Tween20 and secondary antibodies were applied for 1 hour at room temperature in 5% w/v BSA in TBS and 0.1% v/v Tween20. Immunoreactive proteins were detected by enhanced chemiluminescence (Thermo Scientific) on a ChemiDoc XRS+ (Bio-Rad Laboratories). Densitometry analysis was performed using ImageJ.

8505C tumors [5] = test: 8505C xenograft tumor growth in nude mice; format: in vivo, mouse; settings: intraperitoneal, 50 mg/kg CP-91,149, 10 mg/kg sorafenib, 6-7 days a week
Procedure: Ethics statement and animal modeling—All animal procedures were approved by Institutional Animal Care and Use Committee (IACUC) at the University of Vermont. All animals were maintained in pathogen-free conditions and cared for in accordance with IACUC policies and certification. All surgeries were performed with isoflurane anesthesia. Temperature-controlled post-surgical monitoring was implemented to minimize suffering. Mice carrying anaplastic thyroid tumors were euthanized at designated time points for tumor collection. Signs of ulceration or a maximum individual tumor size of 2000 mm^3 were used as a protocol-enforced endpoint.
Mice were given food and water ad libitum. […] These doses were based on previous reports.

8505C cells [6] = test: SRB cell viability assay in ATC cells; format: cell-based, human
Procedure: In Vitro Cell Staining for Measuring Drug Efficacy—Thyroid cells (4.0×10^3) were seeded in 96 well plates with 100 μl CTM and allowed to adhere overnight. 100 μl of CTM containing 2× concentration of compound was overlayed in each well for 48 hours unless otherwise indicated. Each well then received 100 μl of 10% w/v cold trichloroacetic acid (Fisher) and incubated at 4° C. for 1 hour to fix the cells. Each well was rinsed 3× with DI H2O and stained with 100 μl 0.057% w/v sulforhodamine B (SRB, Sigma-Aldrich) for 30 minutes at room temperature in the dark. Wells were washed 4× with 300 μl 1% v/v acetic acid (Fisher), and remaining SRB stain was solubilized with 200 μl of 10 mM Tris buffer, pH 10.5 (Fisher). Absorbance was measured at 564 nm with a Synergy 2 Multi-Detection Microplate Reader (Agilent Technologies) and normalized to a vehicle control. Drug synergy was evaluated using the coefficient of drug interaction (CDI) formula: CDI=AB/(A×B)×100, where AB is the percent remaining cells of an indicated combination treatment, A is the average percent remaining cells of agent 1 alone, and B is the average percent remaining cells of agent 2 alone. […] Hao et al., “Effect of Lumiracoxib on Proliferation and Apoptosis of Human Nonsmall Cell Lung Cancer Cells In vitro,” Chin Med J (Engl) 121:602-607 (2008), which is hereby incorporated by reference in its entirety. […]

[7] = immunofluorescence of excised tumors

CN(C)C(=O)[C@H](O)[C@H](Cc1ccccc1)NC(=O)c1cc2cc(Cl)ccc2[nH]1 [CP-91,149, 5-chloro-N-[(2S,3R)-4-(dimethylamino)-3-hydroxy-4-oxo-1-phenylbutan-2-yl]-1H-indole-2-carboxamide]
glycogen in tumor tissue (PAS staining) (8505C tumors [1]; excised tumors): significantly increased the level of glycogen in the tumor tissue
Ki-67 expression in xenograft tumors (8505C tumors [1]; [7]): reduction in Ki-67 expression
apoptosis (PARP cleavage) in xenograft tumors (8505C tumors [1]; [7]): induces apoptosis in vivo
apoptosis (PARP cleavage) in xenograft tumors (8505C tumors [1]; immunofluorescence of excised tumors, listed as CP): profoundly induced apoptosis
extracellular acidification rate (ECAR) (8505C cells [2]): enhances extracellular acidification rate
extracellular acidification rate (ECAR) (8505C cells [2]; listed as CP): modestly but significantly enhanced ECAR
increase of OCR to compensate for inhibition of glycolysis with 2-DG (8505C cells [2]; ATC cells, CP-treated versus vehicle-treated): unable to increase their oxidative phosphorylation
oxygen consumption rate (OCR) (8505C cells [2]; ATC cells): decreases the basal oxygen consumption rate
oxygen consumption rate (OCR) (8505C cells [2]; ATC cells, listed as CP): significantly limited the OCR
glycogen content (Nthy-ori-3-1 cells [3]): increased glycogen content
glycogen content (Nthy-ori-3-1 cells [3]; listed as CP): significantly increased glycogen content
ROS levels (HepG2 cells): increased ROS levels
autophagic adaptations (HepG2 cells): triggered autophagic adaptations
intrinsic apoptosis (HepG2 cells): induce intrinsic apoptosis
apoptosis (PARP and caspase cleavage) (Nthy-ori-3-1 cells [4]): but not normal thyroid cells
apoptosis (PARP and caspase cleavage) (Nthy-ori-3-1 cells [4]; listed as CP): did not significantly induce apoptosis
proliferation (Ki-67 levels) (Nthy-ori-3-1 cells [4]; listed as CP): not affected
tumor growth (8505C tumors [5]): significantly impaired tumor growth in vivo; also recorded: severely blunted ATC tumor growth in vivo; also recorded: restrict ATC tumor growth
tumor growth (8505C tumors [5]; listed as CP): notably stunted; also recorded: equally as effective as sorafenib
cell viability with excess (2 mM) pyruvate (8505C cells [6]; 8505C cells, 48 hours): nearly identical to the pyruvate-depleted group
cell viability with excess (25 mM) glucose (8505C cells [6]; 8505C cells, 48 hours): rescued cell viability
cell viability with pyruvate depletion (8505C cells [6]; 8505C cells, 48 hours): able to compensate for loss of pyruvate
total cell viability (8505C cells [6]; ATC cells, 48 hours at 50 μM): modestly but significantly reduced total cell viability
cell viability, concentration and time dependence (SRB assay) (8505C cells [6]; various concentrations and time points): concentration-dependent decrease in cell viability; also recorded: decreases 8505C cell viability in a time-dependent manner
